According to ChEMBL document CHEMBL1201862, “PubChem BioAssay data set” (2004):
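Cultured in 96-well plates, cells were exposed to test compound for 48 hours across five concentrations. GI50 is the concentration that inhibits growth by half.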 Activity calls are given as the source filed them. Rule as the data show it: active = GI50 up to about 1.1 µM and inactive = higher.

Assays:
Assay in all cases: DTP human tumour cell line panel, 48 h
[1] = test system: T47D
[2] = test system: NCI/ADR-RES
[3] = test system: 786-0
[4] = test system: M14
[5] = test system: HL-60
[6] = test system: COLO 205
[7] = test system: EKVX
[8] = test system: SF-268
[9] = test system: U-251
[10] = test system: NCI-H23
[11] = test system: SK-MEL-5
[12] = test system: MCF7
[13] = test system: MOLT-4
[14] = test system: BT-549
[15] = test system: NCI-H460
[16] = test system: SN12C
[17] = test system: A549
[18] = test system: NCI-H522
[19] = test system: HT-29
[20] = test system: DLD-1

Structure (SMILES) | GI50 [1] | GI50 [2] | GI50 [3] | GI50 [4] | GI50 [5] | GI50 [6] | GI50 [7] | GI50 [8] | GI50 [9] | GI50 [10] | GI50 [11] | GI50 [12] | GI50 [13] | GI50 [14] | GI50 [15] | GI50 [16] | GI50 [17] | GI50 [18] | GI50 [19] | GI50 [20]
COc1ccc(CC2NCCc3cc(OC)c(OC)cc32)cc1Br (stereo not given) | 27.9 µM (inactive) | 62.5 µM (inactive) | 39.4 µM (inactive) | 16.8 µM (inactive) | 14 µM (inactive) | 16.8 µM (inactive) | 35.2 µM (inactive) | 63.5 µM (inactive) | 34.4 µM (inactive) | 23 µM (inactive) | 13 µM (inactive) | > 100 µM (inactive) | 20.7 µM (inactive) | 87.5 µM (inactive) | 21.2 µM (inactive) | 36.1 µM (inactive) | 56 µM (inactive) | 34.4 µM (inactive) | 19.1 µM (inactive) | 66.7 µM (inactive)
Nc1nc(F)nc2c1ncn2C1OC(COP(=O)(O)O)C(O)C1O (stereo not given) | 78.7 µM (inactive) | 4.11 µM (inactive) | 39.5 µM (inactive) | 6.4 µM (inactive) | 5.4 µM (inactive) | 95.1 µM (inactive) | 45.9 µM (inactive) | 76 µM (inactive) | 231 µM (inactive) | 19.6 µM (inactive) | 56.4 µM (inactive) | 78.3 µM (inactive) | 4.38 µM (inactive) | 56.2 µM (inactive) | 94 µM (inactive) | 6.47 µM (inactive) | 40.7 µM (inactive) | 63.1 µM (inactive) | 310 µM (inactive) | 101 µM (inactive)
CN(C)[C@H]1CC[C@H]2[C@@H]3CCC4C[C@@H](NC(=O)NC(Cc5ccccc5)c5nccs5)CC[C@]4(C)[C@H]3CC[C@]12C (stereo not given in full) | 1.76 µM (inactive) | 1.77 µM (inactive) | 0.512 µM (active) | 1.69 µM (inactive) | 0.218 µM (active) | 0.82 µM (active) | 1.96 µM (inactive) | 1.66 µM (inactive) | 0.698 µM (active) | 1.77 µM (inactive) | 0.789 µM (active) | 0.703 µM (active) | 0.566 µM (active) | 1.79 µM (inactive) | 1.06 µM (active) | 0.348 µM (active) | 1.58 µM (inactive) | 2 µM (inactive) | 0.33 µM (active) | 1.74 µM (inactive)
